Laboratory results from the NIST ThermoML archive (doi:10.1016/j.fluid.2007.07.002).

Test: xn = mol fraction of the nth substance listed
Conditions: 298.15 K, 101 kPa, Liquid

CC(C)CC(C)(C)C [2,2,4-trimethylpentane] + CCCO
Conditions | mass density [kg/m3]
x2 = 0.0531 | 690.2
x2 = 0.098 | 692.4
x2 = 0.1986 | 698.3
x2 = 0.2981 | 705.1
x2 = 0.3987 | 713.1
x2 = 0.4987 | 722.3
x2 = 0.5987 | 732.9
x2 = 0.6994 | 745.8
x2 = 0.8007 | 761
x2 = 0.9 | 779.2
x2 = 0.9499 | 789.6

C=COCCC [propyl vinyl ether] + CCCO
Conditions | mass density [kg/m3]
x1 = 0.051 | 798.7
x1 = 0.1008 | 796.3
x1 = 0.2001 | 791.7
x1 = 0.2995 | 787.3
x1 = 0.4016 | 782.9
x1 = 0.4983 | 779.1
x1 = 0.5999 | 775.3
x1 = 0.7013 | 771.8
x1 = 0.7977 | 768.7
x1 = 0.8977 | 765.7
x1 = 0.9507 | 764.3

C=COCCC [propyl vinyl ether] + CC(C)CC(C)(C)C
Conditions | mass density [kg/m3]
x1 = 0.0468 | 690
x1 = 0.1011 | 692.6
x1 = 0.1999 | 697.5
x1 = 0.2997 | 703
x1 = 0.399 | 709
x1 = 0.5009 | 715.9
x1 = 0.6008 | 723.4
x1 = 0.7005 | 731.6
x1 = 0.7997 | 740.8
x1 = 0.8991 | 751.2
x1 = 0.9507 | 757.1
